Reference: PMC3335988 (Neurochemistry international, 2011)
Counter-ions that a name gives are not always drawn. Like-named read-outs stand apart in the source and are kept apart here. Marks after values point to notes of the source that are not given here.

What was measured:
[1] = biological target: T1, rat GluN1/GluN2B (Rattus norvegicus, UniProt P35439+Q00960); test: cell-based; assay type: cell-based; details: for nH (Hill slope, inhibition): 100 µM glutamate plus 30 µM glycine; for nH (Hill slope): 30 µM glycine
T1 sequence (Q00960 27-1482, other chains not shown): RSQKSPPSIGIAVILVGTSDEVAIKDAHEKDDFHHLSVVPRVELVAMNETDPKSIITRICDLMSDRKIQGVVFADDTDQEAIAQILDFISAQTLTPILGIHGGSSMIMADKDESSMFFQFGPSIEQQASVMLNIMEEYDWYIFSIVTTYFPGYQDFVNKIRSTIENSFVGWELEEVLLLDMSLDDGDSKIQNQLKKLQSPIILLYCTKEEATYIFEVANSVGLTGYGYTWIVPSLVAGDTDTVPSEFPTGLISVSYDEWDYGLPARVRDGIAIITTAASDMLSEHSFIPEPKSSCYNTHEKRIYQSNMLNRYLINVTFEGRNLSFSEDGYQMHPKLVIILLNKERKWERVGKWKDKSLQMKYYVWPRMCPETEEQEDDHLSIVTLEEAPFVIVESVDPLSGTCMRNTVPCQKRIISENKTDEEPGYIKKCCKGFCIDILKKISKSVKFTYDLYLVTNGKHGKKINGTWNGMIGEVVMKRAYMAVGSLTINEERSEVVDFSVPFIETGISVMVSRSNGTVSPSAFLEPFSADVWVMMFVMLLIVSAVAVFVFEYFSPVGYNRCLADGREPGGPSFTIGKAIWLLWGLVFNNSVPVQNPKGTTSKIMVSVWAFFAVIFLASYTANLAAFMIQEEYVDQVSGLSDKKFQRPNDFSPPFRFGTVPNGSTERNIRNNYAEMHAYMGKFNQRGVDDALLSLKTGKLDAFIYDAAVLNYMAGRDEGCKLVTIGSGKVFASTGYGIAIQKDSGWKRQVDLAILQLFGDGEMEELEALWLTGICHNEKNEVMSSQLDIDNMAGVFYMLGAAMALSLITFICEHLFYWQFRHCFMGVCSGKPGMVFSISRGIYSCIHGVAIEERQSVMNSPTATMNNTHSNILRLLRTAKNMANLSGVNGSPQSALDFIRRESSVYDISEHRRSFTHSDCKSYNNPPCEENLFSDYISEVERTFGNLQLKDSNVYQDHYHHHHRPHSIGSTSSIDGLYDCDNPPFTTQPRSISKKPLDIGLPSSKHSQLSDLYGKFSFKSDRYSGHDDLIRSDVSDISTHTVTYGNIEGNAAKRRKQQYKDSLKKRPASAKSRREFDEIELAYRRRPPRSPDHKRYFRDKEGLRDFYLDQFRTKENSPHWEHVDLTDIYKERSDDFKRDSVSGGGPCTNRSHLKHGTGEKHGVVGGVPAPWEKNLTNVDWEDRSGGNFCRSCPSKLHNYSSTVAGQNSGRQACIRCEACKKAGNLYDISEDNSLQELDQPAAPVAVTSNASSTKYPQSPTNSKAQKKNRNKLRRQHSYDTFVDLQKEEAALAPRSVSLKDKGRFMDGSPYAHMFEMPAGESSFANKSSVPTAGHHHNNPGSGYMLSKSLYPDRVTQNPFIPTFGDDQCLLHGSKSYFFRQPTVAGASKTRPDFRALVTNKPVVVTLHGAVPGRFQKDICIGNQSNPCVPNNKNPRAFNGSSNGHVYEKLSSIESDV

[2] = biological target: rat GluN1/GluN2C (Rattus norvegicus, UniProt P35439+Q00961); assay type: cell-based; details: for nH (Hill slope): 30 µM glycine
[3] = biological target: human GluN1/GluN2B (Homo sapiens, UniProt Q05586+Q13224); test: cell-based; assay type: cell-based; details: for nH (Hill slope, inhibition) / nH (Hill slope) / EC50: human GluN1/GluN2B; for nH (Hill slope, inhibition): 100 µM glutamate plus 30 µM glycine; for nH (Hill slope, inhibition) / EC50: -40 mV
[4] = biological target: T2, human GluN1/GluN2D (Homo sapiens, UniProt O15399+Q05586); test: cell-based; assay type: cell-based
T2 sequence (O15399 28-1336, other chains not shown): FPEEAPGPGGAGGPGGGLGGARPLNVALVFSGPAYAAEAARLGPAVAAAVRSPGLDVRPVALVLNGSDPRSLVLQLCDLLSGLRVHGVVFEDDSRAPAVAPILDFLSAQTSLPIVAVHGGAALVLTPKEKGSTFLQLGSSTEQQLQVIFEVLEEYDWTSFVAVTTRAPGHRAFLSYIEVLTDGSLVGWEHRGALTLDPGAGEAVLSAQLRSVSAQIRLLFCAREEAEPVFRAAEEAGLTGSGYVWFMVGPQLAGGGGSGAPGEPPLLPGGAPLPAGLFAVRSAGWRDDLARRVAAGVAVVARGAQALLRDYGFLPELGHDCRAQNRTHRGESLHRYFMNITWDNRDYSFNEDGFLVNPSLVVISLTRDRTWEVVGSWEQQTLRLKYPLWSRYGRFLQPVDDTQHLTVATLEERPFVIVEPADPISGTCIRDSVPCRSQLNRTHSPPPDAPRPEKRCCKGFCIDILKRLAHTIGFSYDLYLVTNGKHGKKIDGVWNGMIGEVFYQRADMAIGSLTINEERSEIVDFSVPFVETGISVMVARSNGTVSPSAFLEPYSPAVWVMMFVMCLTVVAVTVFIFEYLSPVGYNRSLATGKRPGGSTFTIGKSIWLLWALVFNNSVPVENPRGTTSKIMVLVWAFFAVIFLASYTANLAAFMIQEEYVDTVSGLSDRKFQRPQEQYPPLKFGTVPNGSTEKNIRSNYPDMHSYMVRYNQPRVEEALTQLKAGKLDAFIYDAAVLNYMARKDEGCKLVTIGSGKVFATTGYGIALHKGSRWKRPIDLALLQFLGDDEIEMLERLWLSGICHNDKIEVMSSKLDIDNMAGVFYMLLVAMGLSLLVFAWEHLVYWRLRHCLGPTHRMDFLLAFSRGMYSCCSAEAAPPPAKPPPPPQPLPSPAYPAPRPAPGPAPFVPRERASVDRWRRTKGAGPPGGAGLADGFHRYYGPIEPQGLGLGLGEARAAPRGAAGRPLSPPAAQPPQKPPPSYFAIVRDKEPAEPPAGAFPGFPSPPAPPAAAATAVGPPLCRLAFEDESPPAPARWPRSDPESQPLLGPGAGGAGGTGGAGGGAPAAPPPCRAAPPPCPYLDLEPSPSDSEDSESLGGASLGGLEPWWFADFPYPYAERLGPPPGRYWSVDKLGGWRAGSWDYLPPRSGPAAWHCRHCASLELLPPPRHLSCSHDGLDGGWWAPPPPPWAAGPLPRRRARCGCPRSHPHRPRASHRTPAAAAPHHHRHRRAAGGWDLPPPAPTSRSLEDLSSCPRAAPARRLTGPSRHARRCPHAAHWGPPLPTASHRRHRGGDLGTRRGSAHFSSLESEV

[5] = biological target: human GluN1/GluN2C (Homo sapiens, UniProt Q05586+Q14957, INS1047EPP); test: cell-based; assay type: cell-based
[6] = biological target: human GluN1/GluN2A (Homo sapiens, UniProt Q05586+Q12879); assay type: cell-based; details: for nH (Hill slope, inhibition): 100 µM glutamate plus 30 µM glycine
Chain of human GluN1/GluN2A (Q12879 23-1464, other chains not shown): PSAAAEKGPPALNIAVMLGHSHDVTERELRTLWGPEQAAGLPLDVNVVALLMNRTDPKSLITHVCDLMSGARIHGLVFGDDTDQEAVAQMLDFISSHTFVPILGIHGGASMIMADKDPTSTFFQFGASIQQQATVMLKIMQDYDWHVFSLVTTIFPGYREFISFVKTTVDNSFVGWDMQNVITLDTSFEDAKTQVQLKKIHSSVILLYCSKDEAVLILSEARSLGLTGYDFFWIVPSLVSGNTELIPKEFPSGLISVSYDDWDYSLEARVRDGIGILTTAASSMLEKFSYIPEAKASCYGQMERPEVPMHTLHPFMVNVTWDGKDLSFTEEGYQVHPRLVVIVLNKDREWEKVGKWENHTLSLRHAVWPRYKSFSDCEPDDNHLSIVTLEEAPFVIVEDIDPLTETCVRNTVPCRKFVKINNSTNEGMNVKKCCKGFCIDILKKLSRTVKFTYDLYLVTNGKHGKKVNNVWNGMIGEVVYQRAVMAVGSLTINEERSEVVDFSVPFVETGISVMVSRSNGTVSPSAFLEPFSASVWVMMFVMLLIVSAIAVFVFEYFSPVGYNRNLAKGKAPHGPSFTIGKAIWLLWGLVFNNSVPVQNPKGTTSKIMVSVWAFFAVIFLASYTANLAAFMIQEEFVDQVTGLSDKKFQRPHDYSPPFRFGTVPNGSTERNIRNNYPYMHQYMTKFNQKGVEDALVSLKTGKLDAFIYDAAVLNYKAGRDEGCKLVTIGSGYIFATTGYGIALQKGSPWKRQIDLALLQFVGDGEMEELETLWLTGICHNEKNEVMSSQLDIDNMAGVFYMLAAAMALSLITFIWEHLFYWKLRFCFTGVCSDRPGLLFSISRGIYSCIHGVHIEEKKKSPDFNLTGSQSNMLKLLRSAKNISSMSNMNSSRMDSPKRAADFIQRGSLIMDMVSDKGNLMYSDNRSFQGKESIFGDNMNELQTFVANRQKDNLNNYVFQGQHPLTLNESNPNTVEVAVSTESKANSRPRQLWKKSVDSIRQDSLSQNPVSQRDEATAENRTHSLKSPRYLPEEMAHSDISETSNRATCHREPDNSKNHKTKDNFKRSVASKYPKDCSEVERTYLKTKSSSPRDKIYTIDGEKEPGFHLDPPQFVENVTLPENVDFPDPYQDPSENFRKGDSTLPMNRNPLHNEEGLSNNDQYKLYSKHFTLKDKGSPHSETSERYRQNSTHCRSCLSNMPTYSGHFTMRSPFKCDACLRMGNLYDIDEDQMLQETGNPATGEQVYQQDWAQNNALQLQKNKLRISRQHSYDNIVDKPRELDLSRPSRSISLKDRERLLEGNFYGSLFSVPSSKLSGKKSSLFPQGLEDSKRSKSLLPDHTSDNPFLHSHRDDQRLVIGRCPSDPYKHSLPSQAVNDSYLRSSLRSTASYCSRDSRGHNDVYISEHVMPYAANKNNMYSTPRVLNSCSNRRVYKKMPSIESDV

[7] = biological target: T3, rat GluN1/GluN2D (Rattus norvegicus, UniProt P35439+Q62645); assay type: cell-based; details: for nH (Hill slope): 30 µM glycine
[8] = biological target: T4, rat GluN1/GluN2A (Rattus norvegicus, UniProt P35439+Q00959); test: Two-electrode voltage-clamp recordings, recombinant receptors in Xenopus oocytes; assay type: cell-based; details: for nH (Hill slope, inhibition): 100 µM glutamate plus 30 µM glycine; for nH (Hill slope): 30 µM glycine
[9] = test system: human and rat NMDA receptor subtypes; test: Two-electrode voltage-clamp, relative agonist efficacy across subtypes; assay type: cell-based; details: range over human and rat subtypes; same recording; 30 µM glycine
[10] = biological target: T4, rat GluN1/GluN2A; details: HEK293 cells, 2 mM extracellular Ca2+, ref Vicini et al., 1998; cited from earlier work
[11] = biological target: T3, rat GluN1/GluN2D; details: Table 2, ref Hansen and Traynelis, 2011; cited from earlier work
[12] = biological target: T2, human GluN1/GluN2D; details: HEK293 cells, 2 mM extracellular Ca2+, ref Hess et al., 1998; cited from earlier work
[13] = biological target: T1, rat GluN1/GluN2B; details: HEK293 cells, 2 mM extracellular Ca2+, ref Vicini et al., 1998; cited from earlier work
[14] = rat GluN1/GluN2C, 100 µM glutamate plus 30 µM glycine, -40 mV
[15] = rat GluN1/GluN2D, 100 µM glutamate plus 30 µM glycine, -40 mV
[16] = rat GluN1/GluN2C, 100 µM glutamate plus 30 µM glycine
[17] = human GluN1/GluN2D, 100 µM glutamate plus 30 µM glycine
[18] = rat GluN1/GluN2D, 100 µM glutamate plus 30 µM glycine
[19] = human GluN1/GluN2D, 100 µM glutamate plus 30 µM glycine, -40 mV
[20] = human GluN1/GluN2C, 100 µM glutamate plus 30 µM glycine, -40 mV

CN[C@]1(c2ccccc2Cl)CCCCC1=O [(+)ketamine, S-(+)-ketamine hydrochloride]
IC50 fold lower at rat compared to corresponding human subtype ([1]; GluN1/GluN2B, rat vs human): 1.6 fold
nH (Hill slope, inhibition) ([1]; rat GluN1/GluN2B, -40 mV): 0.9
nH (Hill slope, inhibition) [2, 14]: 1.0
nH (Hill slope, inhibition) [3]: 1.0
IC50 [4]: 2.4 ± 0.1 µM
nH (Hill slope, inhibition) [4]: 0.9
IC50 [5]: 0.79 ± 0.04 µM
nH (Hill slope, inhibition) [5]: 0.9
nH (Hill slope, inhibition) ([6]; -40 mV): 1.0
IC50 fold lower at rat compared to corresponding human subtype ([7]; GluN1/GluN2D, rat vs human): 1.7 fold
nH (Hill slope, inhibition) [7, 15]: 1.0
nH (Hill slope, inhibition) ([8]; rat GluN1/GluN2A, -40 mV): 1.0

COc1ccc(OCC2c3cc(OC)c(OC)cc3CCN2C(=O)c2cccc(Cl)c2)cc1 (centres unmarked) [CIQ, (3-chlorophenyl) [3,4-dihydro-6,7-dimethoxy-1-[(4-methoxyphenoxy)methyl]-2(1H)-isoquinolinyl]methanone]
maximal potentiation compared to NMDA receptor currents in the absence of CIQ [2, 16]: 260 ± 30
nH (Hill slope, potentiation) [2, 16]: 1.1
maximal potentiation compared to NMDA receptor currents in the absence of CIQ [4, 17]: 250 ± 10
nH (Hill slope, potentiation) [4, 17]: 1.3
nH (Hill slope, potentiation) ([5]; human GluN1/GluN2C, 100 µM glutamate plus 30 µM glycine): 1.6
maximal potentiation compared to NMDA receptor currents in the absence of CIQ [7, 18]: 240 ± 20
nH (Hill slope, potentiation) [7, 18]: 1.3

CN[C@H](CC(=O)O)C(=O)O [NMDA, N-methyl-D-aspartate]
nH (Hill slope) ([1]; rat GluN1/GluN2B): 1.7
EC50 ([1]; rat GluN1/GluN2B, continuous presence of 30 µM glycine, -40 mV): 21 ± 4 µM
nH (Hill slope) ([2]; rat GluN1/GluN2C): 1.4
EC50 ([2]; rat GluN1/GluN2C, continuous presence of 30 µM glycine, -40 mV): 19 ± 2 µM
nH (Hill slope) ([3]; 30 µM glycine): 1.4
EC50 ([3]; continuous presence of 30 µM glycine): 23 ± 2 µM
EC50 [4]: 6.7 ± 0.2 µM
nH (Hill slope) [4]: 2.1
EC50 [5]: 19 ± 1 µM
nH (Hill slope) [5]: 1.2
nH (Hill slope) ([6]; 30 µM glycine): 1.3
EC50 ([6]; continuous presence of 30 µM glycine, -40 mV): 68 ± 3 µM
nH (Hill slope) ([7]; rat GluN1/GluN2D): 1.7
EC50 ([7]; rat GluN1/GluN2D, continuous presence of 30 µM glycine, -40 mV): 7.9 ± 0.9 µM
maximal activation compared to maximal activation by the full agonist glutamate [9]: 69–89%
nH (Hill slope) ([8]; rat GluN1/GluN2A): 1.5
EC50 ([8]; rat GluN1/GluN2A, continuous presence of 30 µM glycine, -40 mV): 71 ± 9 µM

COc1ccc2nc(/C=C/c3cccc([N+](=O)[O-])c3)n(-c3ccc(C(=O)O)cc3)c(=O)c2c1 [QNZ46, (E)-4-(6-methoxy-2-(3-nitrostyryl)-4-oxoquinazolin-3(4H)-yl)-benzoic acid]
IC50 [1]: > 100 µM
IC50 fold higher at rat compared to human ([2]; GluN1/GluN2C, rat vs human): 1.2 fold
nH (Hill slope, inhibition) [2, 14]: 1.2
IC50 [3]: > 100 µM
nH (Hill slope, inhibition) [4, 19]: 1.0
nH (Hill slope, inhibition) [5, 20]: 1.0
nH (Hill slope, inhibition) [7, 15]: 1.0

NC(=NCc1ccc(Cl)cc1)SCCCc1cnc[nH]1 [clobenpropit, N-(4-chlorobenzyl)-S-[3-(4(5)-imidazolyl)propyl]isothiourea dihydrobromide]
nH (Hill slope, inhibition) ([1]; rat GluN1/GluN2B, -40 mV): 1.3
nH (Hill slope, inhibition) [2, 14]: 0.8
nH (Hill slope, inhibition) [3]: 1.0
nH (Hill slope, inhibition) [4, 19]: 1.0
nH (Hill slope, inhibition) [5, 20]: 0.9
nH (Hill slope, inhibition) ([6]; -40 mV): 1.0
nH (Hill slope, inhibition) [7, 15]: 0.9
IC50 fold higher at rat compared to human ([8]; GluN1/GluN2A, rat vs human): 1.9 fold

OC(CN1CCC(Cc2ccc(F)cc2)CC1)c1ccc(Cl)cc1 (stereo not drawn) [eliprodil, α-(4-chlorophenyl)-4-[(4-fluorophenyl)methyl]-1-piperidineethanol]
nH (Hill slope, inhibition) ([1]; rat GluN1/GluN2B, -40 mV): 1.2
nH (Hill slope, inhibition) [3]: 1.3

N[C@@H](CCC(=O)O)C(=O)O [glutamate, L-glutamic acid]
nH (Hill slope) ([1]; rat GluN1/GluN2B): 1.5
τdeactivation glutamate (weighted time constant) [10]: 54 ^k ms
nH (Hill slope) ([2]; rat GluN1/GluN2C): 1.4
τdeactivation following removal of glutamate [11]: > 2 s
nH (Hill slope) ([3]; 30 µM glycine): 1.8
nH (Hill slope) [4]: 1.5
nH (Hill slope) [5]: 1.6
τdeactivation glutamate (weighted time constant) [12]: 6300 ^a ms
τdeactivation glutamate (weighted time constant) [13]: 287 ^k ms
nH (Hill slope) ([6]; 30 µM glycine): 1.3
nH (Hill slope) ([7]; rat GluN1/GluN2D): 1.5
nH (Hill slope) ([8]; rat GluN1/GluN2A): 1.4

NCC(=O)O [glycine]
nH (Hill slope) ([3]; 100 µM glutamate): 1.7
EC50 ([3]; continuous presence of 100 µM glutamate): 0.29 ± 0.04 µM
EC50 [4]: 0.12 ± 0.01 µM
nH (Hill slope) [4]: 1.8
EC50 [5]: 0.25 ± 0.01 µM
nH (Hill slope) [5]: 1.6
τdeactivation glycine (weighted time constant) [12]: 1800 ^a ms
nH (Hill slope) ([6]; 100 µM glutamate): 1.3

CC(C(O)c1ccc(O)cc1)N1CCC(Cc2ccccc2)CC1 (stereo not drawn) [ifenprodil, (1R*,2S*)-erythro-2-(4-benzylpiperidino)-1-(4-hydroxyphenyl)-1-propanol hemitartrate]
nH (Hill slope, inhibition) ([1]; rat GluN1/GluN2B, -40 mV): 1.2
nH (Hill slope, inhibition) [3]: 1.1
nH (Hill slope, inhibition) ([8]; rat GluN1/GluN2A, -40 mV): 1.2

CC12CC3CC(C)(C1)CC(N)(C3)C2 [memantine, memantine hydrochloride]
nH (Hill slope, inhibition) [3]: 1.0
nH (Hill slope, inhibition) [4]: 0.9
nH (Hill slope, inhibition) [5]: 1.0
nH (Hill slope, inhibition) ([6]; -40 mV): 1.1
